Test results published in patent US20220324815A1, “2-PHENOXY-PYRIMIDINE DERIVATIVES AS HERBICIDAL COMPOUNDS” (SYNGENTA CROP PROTECTION AG, priority 2019, published 2022).

Columns and labels:
Assay type in all cases: in vivo
Conditions in all cases: 250 g/ha unless otherwise stated, evaluated after 13 days, five-point scale
[1] = tested on: Amaranthus retoflexus (AMARE); test: Test 1 glasshouse herbicide test, post-emergence application (Table B1)
Procedure, shortened: (§1)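 Score is % phytotoxicity after 13 days, binned 1 (0–20%) to 5 (81–100%). Compound given at 250 g/ha unless stated, as acetone/water (50:50) spray with 0.5% Tween 20, one day post-sowing (pre-emergence) or after 8 days' growth (post-emergence); glasshouse at 24/16 °C day/night, 14 h light, 65% humidity.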

[2] = tested on: Echinochloa crus-galli (ECHCG); test: as above
Procedure, shortened: as §1

[3] = tested on: Ipomoea hederacea (IPOHE); test: as above
Procedure, shortened: as §1

Setaria faberi (SETFA) [4] = test: as above
Procedure, shortened: as §1

[5] = tested on: Amaranthus retoflexus (AMARE); test: Test 1 glasshouse herbicide test, pre-emergence application (Table B2)
Procedure, shortened: as §1

[6] = tested on: Echinochloa crus-galli (ECHCG); test: as above
Procedure, shortened: as §1

[7] = tested on: Ipomoea hederacea (IPOHE); test: as above
Procedure, shortened: as §1

Setaria faberi (SETFA) [8] = test: as above
Procedure, shortened: as §1

Structure (SMILES)	% phytotoxicity AMARE, post-emergence application [1]	% phytotoxicity ECHCG, post-emergence application [2]	% phytotoxicity IPOHE, post-emergence application [3]	% phytotoxicity SETFA, post-emergence application (Setaria faberi (SETFA) [4])	% phytotoxicity AMARE, pre-emergence application [5]	% phytotoxicity ECHCG, pre-emergence application [6]	% phytotoxicity IPOHE, pre-emergence application [7]	% phytotoxicity SETFA, pre-emergence application (Setaria faberi (SETFA) [8])
O=S(=O)(C/C=C/Cl)c1ccccc1Oc1ncc(Cl)cn1 [Compound A38]	2 (2=21 to 40%)	1 (1=0 to 20%)	3 (3=41 to 60%)	1 (1=0 to 20%)	2 (2=21 to 40%)	1 (1=0 to 20%)	1 (1=0 to 20%)	1 (1=0 to 20%)
C=CCCSc1ccccc1Oc1ncc(Cl)cn1 [Compound A71]	5 (5=81 to 100%)	4 (4=61 to 80%)	4 (4=61 to 80%)	3 (3=41 to 60%)	5 (5=81 to 100%)	5 (5=81 to 100%)	1 (1=0 to 20%)	5 (5=81 to 100%)
N#Cc1cccc(Oc2ncc(Br)cn2)c1SCCCCC(F)(F)F [Compound A121]	5 (5=81 to 100%)	3 (3=41 to 60%)	3 (3=41 to 60%)	4 (4=61 to 80%)	5 (5=81 to 100%)	3 (3=41 to 60%)	2 (2=21 to 40%)	5 (5=81 to 100%)
CCCCCCS(=O)(=O)c1ccccc1Oc1ncc(Cl)cn1 [Compound A77]	2 (2=21 to 40%)	1 (1=0 to 20%)	1 (1=0 to 20%)	1 (1=0 to 20%)	4 (4=61 to 80%)	3 (3=41 to 60%)	1 (1=0 to 20%)	1 (1=0 to 20%)
[O-][S+](CCC(F)F)c1c(Cl)cccc1Oc1ncc(Cl)cn1 (stereo not drawn) [Compound A95]	4 (4=61 to 80%)	2 (2=21 to 40%)	4 (4=61 to 80%)	1 (1=0 to 20%)	5 (5=81 to 100%)	5 (5=81 to 100%)	5 (5=81 to 100%)	5 (5=81 to 100%)
N#Cc1cccc(Oc2ncc(Br)cn2)c1S(=O)(=O)CCCCC(F)(F)F [Compound A120]	4 (4=61 to 80%)	3 (3=41 to 60%)	4 (4=61 to 80%)	3 (3=41 to 60%)	4 (4=61 to 80%)	3 (3=41 to 60%)	5 (5=81 to 100%)	4 (4=61 to 80%)
C=C(C)CSc1ccccc1Oc1ncc(Cl)cn1 [Compound A62]	1 (1=0 to 20%)	4 (4=61 to 80%)	1 (1=0 to 20%)	3 (3=41 to 60%)	1 (1=0 to 20%)	3 (3=41 to 60%)	1 (1=0 to 20%)	3 (3=41 to 60%)
FCCCSc1ccccc1Oc1ncc(Cl)cn1 [Compound A59]	5 (5=81 to 100%)	4 (4=61 to 80%)	2 (2=21 to 40%)	2 (2=21 to 40%)	5 (5=81 to 100%)	5 (5=81 to 100%)	2 (2=21 to 40%)	4 (4=61 to 80%)
N#Cc1cccc(Oc2ncc(Cl)cn2)c1SCCCCC(F)(F)F [Compound A39]	5 (5=81 to 100%)	5 (5=81 to 100%)	3 (3=41 to 60%)	5 (5=81 to 100%)	5 (5=81 to 100%)	5 (5=81 to 100%)	2 (2=21 to 40%)	5 (5=81 to 100%)
FC(F)(F)CSc1ccccc1Oc1ncc(Cl)cn1 [Compound A55]	5 (5=81 to 100%)	4 (4=61 to 80%)	4 (4=61 to 80%)	4 (4=61 to 80%)	5 (5=81 to 100%)	5 (5=81 to 100%)	2 (2=21 to 40%)	5 (5=81 to 100%)
CC(C)CSc1ccccc1Oc1ncc(Cl)cn1 [Compound A72]	3 (3=41 to 60%)	3 (3=41 to 60%)	2 (2=21 to 40%)	2 (2=21 to 40%)	4 (4=61 to 80%)	4 (4=61 to 80%)	1 (1=0 to 20%)	4 (4=61 to 80%)
FC(F)CCSc1c(Cl)cccc1Oc1ncc(Cl)cn1 [Compound A94]	5 (5=81 to 100%)	5 (5=81 to 100%)	3 (3=41 to 60%)	5 (5=81 to 100%)	5 (5=81 to 100%)	5 (5=81 to 100%)	3 (3=41 to 60%)	5 (5=81 to 100%)
CCCCCCSc1ccccc1Oc1ncc(Cl)cn1 [Compound A53]	4 (4=61 to 80%)	1 (1=0 to 20%)	1 (1=0 to 20%)	1 (1=0 to 20%)	3 (3=41 to 60%)	2 (2=21 to 40%)	1 (1=0 to 20%)	3 (3=41 to 60%)
N#Cc1cccc(Oc2ncc(Cl)cn2)c1SCCCC(F)F [Compound A100]	5 (5=81 to 100%)	5 (5=81 to 100%)	5 (5=81 to 100%)	4 (4=61 to 80%)	5 (5=81 to 100%)	5 (5=81 to 100%)	5 (5=81 to 100%)	5 (5=81 to 100%)
C=CCS(=O)(=O)c1ccccc1Oc1ncc(Cl)cn1 [Compound A48]	2 (2=21 to 40%)	1 (1=0 to 20%)	1 (1=0 to 20%)	1 (1=0 to 20%)	1 (1=0 to 20%)	1 (1=0 to 20%)	1 (1=0 to 20%)	1 (1=0 to 20%)
